These results are taken from PubChem BioAssay (NCI).

Several values for one entry are separate records, joined by “and”; a condition that tells them apart may be missing. Equal entries are not always repeated.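 Grown in 96-well plates, cells were treated for 48 hours with each compound at five concentrations. Insufficient inhibition: endpoint recorded as highest concentration tested. GI50 = concentration required for 50% inhibition of growth. Definition used: TGI = concentration required for complete inhibition of growth.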 Some results are limits rather than exact numbers.

Some test systems named below: DU-145 prostate; HCT-116 colon; IGROV1 ovarian; NCI-H23 lung; NCI-H460 lung; NCI/ADR-RES ovarian; SK-MEL-28 melanoma; SK-OV-3 ovarian.
Holding throughout (assay): NCI anticancer screen, dose series, 48 h

Take `C=CC(=O)Nc1cccc(Nc2nc(Nc3ccc(OCCOC)cc3)ncc2F)c1`: the GI50 in the test on DU-145 prostate is 1.55 µM; with HCT-116 colon it was 1.82 µM; with IGROV1 ovarian it was 1.66 µM; with NCI-H23 lung it was 5.67 µM; with NCI-H460 lung, 2.28 µM; in the test on NCI/ADR-RES ovarian it was 2.94 µM. For the same molecule, the GI50 with SK-MEL-28 melanoma is 5.62 µM; in the test on SK-OV-3 ovarian, 0.533 µM. For the same molecule, the TGI in the test with DU-145 prostate came to 13.7 µM; in the test on HCT-116 colon, 13.1 µM; in the test on IGROV1 ovarian, 5.45 µM; with NCI-H23 lung, 29.1 µM; in the test on NCI-H460 lung, 14.5 µM; in the test with NCI/ADR-RES ovarian, 16.3 µM. Besides, the TGI came out at 24.4 µM in the test with SK-MEL-28 melanoma and 3.17 µM with SK-OV-3 ovarian.

For the molecule `CC(=O)O[C@H]1C(=O)[C@@]2(C)[C@H]([C@H](OC(=O)c3ccccc3)[C@]3([O-])C[C@H](OC(=O)[C@H]([O-])[C@@H](NC(=O)c4ccccc4)c4ccccc4)C(C)=C1C3(C)C)[C@]1(OC(C)=O)CO[C@@H]1C[C@@H]2[O-].[Fe+3]`, the GI50 in the test on DU-145 prostate is 0.068 µM and 0.0595 µM; with HCT-116 colon, 0.0253 µM and 0.0388 µM; in the test with IGROV1 ovarian, 0.0426 µM and 0.211 µM; in the test on NCI-H23 lung, 0.0685 µM and 0.164 µM; with NCI-H460 lung, 0.0266 µM and 0.0498 µM; with NCI/ADR-RES ovarian, 19.2 µM. Besides, the GI50 was 13.2 µM in the test on SK-MEL-28 melanoma; 0.0724 µM and 0.142 µM in the test with SK-OV-3 ovarian. Besides, the TGI was 0.272 µM and 0.595 µM in the test on DU-145 prostate; 65 µM and 72.5 µM in the test with IGROV1 ovarian; 65 µM and > 100 µM with NCI-H23 lung; 65 µM and 25.5 µM with NCI-H460 lung; 15.9 µM and > 100 µM in the test on NCI/ADR-RES ovarian; 64.8 µM in the test with SK-MEL-28 melanoma. The TGI in the test with SK-OV-3 ovarian was 11.9 µM and > 100 µM.

As to `COc1ccc(NC2=C(Br)C(=O)C(C)=C(C)C2=O)cc1`, the GI50 with DU-145 prostate is 15 µM; with HCT-116 colon it was 1.76 µM; in the test with IGROV1 ovarian, 1.8 µM; with NCI-H23 lung, 4.41 µM; in the test on NCI-H460 lung it was 18.8 µM; in the test on NCI/ADR-RES ovarian it was 2.04 µM. Also, the figures for the GI50 with SK-MEL-28 melanoma and in the test with SK-OV-3 ovarian were 2.3 µM and 12.3 µM, respectively. Moreover, the TGI in the test on DU-145 prostate amounted to 29.1 µM; in the test on HCT-116 colon, 3.37 µM; in the test with IGROV1 ovarian, 3.39 µM; in the test on NCI-H23 lung, 23.7 µM; in the test with NCI-H460 lung, 42.6 µM; with NCI/ADR-RES ovarian, 4.65 µM. The TGI was found to be 4.76 µM in the test on SK-MEL-28 melanoma and 26.1 µM in the test with SK-OV-3 ovarian.

`COc1ccc2c(c1)C=CC(C#N)N2C(=O)c1ccccc1` (stereo not drawn): the GI50 in the test on DU-145 prostate is below 0.01 µM; with HCT-116 colon it was below 0.01 µM; in the test on NCI-H23 lung it was below 0.01 µM; in the test with NCI-H460 lung, below 0.01 µM; with NCI/ADR-RES ovarian, below 0.0464 µM; with SK-OV-3 ovarian it was below 0.01 µM. The TGI was above 100 µM in the test with DU-145 prostate; above 100 µM in the test with HCT-116 colon; above 100 µM with IGROV1 ovarian; above 100 µM in the test on NCI-H23 lung; 36.7 µM in the test with NCI-H460 lung; above 100 µM in the test on SK-MEL-28 melanoma. This molecule registered a TGI in the test on SK-OV-3 ovarian above 100 µM.

Turning to `COc1cc(-c2cn(C)c(=O)c(C)c2C)cc(OC)c1CN1CC[C@H](N2CCN(c3ccc(N[C@H]4CCC(=O)NC4=O)cc3F)CC2)C(F)(F)C1`, the GI50 in the test with DU-145 prostate was 27.6 µM; in the test on HCT-116 colon it was 13.1 µM; in the test with IGROV1 ovarian, 13.8 µM; in the test with NCI-H23 lung, 14 µM; with NCI-H460 lung, 15.5 µM; in the test with NCI/ADR-RES ovarian, 12.9 µM. Moreover, the figures for the GI50 in the test with SK-MEL-28 melanoma and in the test with SK-OV-3 ovarian were 15.6 µM and 18.4 µM, respectively. In addition, the TGI was above 100 µM in the test on DU-145 prostate; 27.7 µM in the test with HCT-116 colon; 34.3 µM in the test with IGROV1 ovarian; 28.6 µM in the test with NCI-H23 lung; 32.4 µM in the test with NCI-H460 lung; 30.5 µM with NCI/ADR-RES ovarian. In addition, the values for the TGI with SK-MEL-28 melanoma and in the test on SK-OV-3 ovarian were 30.9 µM and 36.2 µM, respectively.

Take `CNC(=O)c1cc(Oc2ccc(NC(=O)Nc3ccc(Cl)c(OC(F)(F)F)c3)c(F)c2)ccn1`: the GI50 with DU-145 prostate was 4.24 µM; with HCT-116 colon it was 1.15 µM; with IGROV1 ovarian, 2.3 µM; with NCI-H23 lung it was 0.913 µM; with NCI-H460 lung, 2.22 µM; in the test on NCI/ADR-RES ovarian, 1.37 µM. The GI50 in the test with SK-MEL-28 melanoma is 1.01 µM; in the test on SK-OV-3 ovarian it was 4.32 µM. Moreover, the TGI in the test with DU-145 prostate is above 33.2 µM; with HCT-116 colon, 8.08 µM; with IGROV1 ovarian, 16.6 µM; in the test on NCI-H23 lung it was 5.58 µM; with NCI-H460 lung, 17.6 µM; in the test with NCI/ADR-RES ovarian, 5.22 µM. Also, the TGI with SK-MEL-28 melanoma was 4.27 µM; in the test with SK-OV-3 ovarian, above 33.2 µM.

`Cc1ccc(C(=O)CC(Sc2cccc(Cl)c2Cl)c2ccc(Cl)cc2)cc1C` (stereo not drawn): the GI50 is 16.1 µM in the test with DU-145 prostate; 19.4 µM in the test with HCT-116 colon; 19.7 µM with IGROV1 ovarian; 17.4 µM with NCI-H23 lung; 19.1 µM in the test with NCI-H460 lung; 23.3 µM in the test on NCI/ADR-RES ovarian. Besides, the GI50 was 20.5 µM in the test with SK-MEL-28 melanoma and 23.3 µM with SK-OV-3 ovarian. Further, the TGI worked out at 34.9 µM in the test with DU-145 prostate; 49.8 µM in the test on HCT-116 colon; 41.2 µM in the test with IGROV1 ovarian; 32.6 µM in the test on NCI-H23 lung; 42.1 µM in the test with NCI-H460 lung; 48.9 µM in the test on NCI/ADR-RES ovarian. Also, the TGI is 44.8 µM with SK-MEL-28 melanoma and 59.7 µM in the test on SK-OV-3 ovarian.

For the molecule `Oc1ccc(Cc2ccccc2)c2cccnc12`, the GI50 in the test with DU-145 prostate is 2.58 µM; in the test with HCT-116 colon, 1.79 µM; with IGROV1 ovarian it was 2.2 µM; in the test with NCI-H23 lung, 2.9 µM; in the test with NCI-H460 lung, 1.61 µM; with NCI/ADR-RES ovarian, 0.49 µM. For the same molecule, the values for the GI50 with SK-MEL-28 melanoma and in the test on SK-OV-3 ovarian were 10.3 µM and 3.43 µM, respectively. Besides, the TGI in the test with DU-145 prostate was above 100 µM; in the test with HCT-116 colon it was 21.5 µM; in the test with IGROV1 ovarian it was 32.8 µM; in the test with NCI-H23 lung it was 57.1 µM; in the test on NCI-H460 lung, 17.3 µM; in the test on NCI/ADR-RES ovarian, 13.3 µM. For the same molecule, the TGI in the test with SK-MEL-28 melanoma and with SK-OV-3 ovarian was above 100 µM in each case.

As for `Nc1ccc(SC23CC4CC(CC(C4)C2)C3)cc1`, the TGI in the test with DU-145 prostate, with HCT-116 colon, with IGROV1 ovarian, with NCI-H23 lung, in the test with NCI-H460 lung and with NCI/ADR-RES ovarian was above 100 µM in each case. Also, the TGI in the test with SK-MEL-28 melanoma and with SK-OV-3 ovarian was above 100 µM each time.

Consider `N#Cc1c(-c2ccccc2)nc2c(c(-c3ccccc3)nn2-c2ccccc2)c1-c1ccc(O)cc1`, for which the GI50 with DU-145 prostate is 2.62 µM; with HCT-116 colon, 2.63 µM; with IGROV1 ovarian, 1.8 µM; with NCI-H23 lung it was 1.78 µM; in the test on NCI-H460 lung, 1.73 µM; with NCI/ADR-RES ovarian, 2.27 µM. Besides, the GI50 is 1.58 µM in the test with SK-MEL-28 melanoma and 2.87 µM in the test on SK-OV-3 ovarian. Further, the TGI in the test with DU-145 prostate worked out at 8.53 µM; with HCT-116 colon, 7.32 µM; with IGROV1 ovarian, 3.62 µM; in the test on NCI-H23 lung it was 3.84 µM; with NCI-H460 lung, 3.26 µM; in the test with NCI/ADR-RES ovarian, 5.62 µM. For the same molecule, the TGI in the test on SK-MEL-28 melanoma was determined as 3.05 µM; in the test with SK-OV-3 ovarian, 8.48 µM.
